In patent publication US4923802A, “Peptide substrates for the detection, characterization and purification of protein kinase C” (Immunex Corporation, priority 1985, dated 1990):
“Also recorded” adds a separate entry of the source. Ends that are not written are not given here.

Assays:
[1] = system: protein kinase C; conditions: cited from earlier work
[2] = system: protein kinase C; assay: Direct assay for protein kinase C: phosphorylation of peptide substrate with (gamma 32P) ATP, phosphocellulose filter counting; format: biochemical, rat
Description: The peptide substrate of the present invention may be employed to assay for the presence of protein kinase C, for instance, during the above-outlined process of preparing the enzyme. The assay is based on the phosphorylation of the peptide substrate by protein kinase C. In the assay, the sample to be tested is mixed together with the peptide substrate, radiolabeled ATP, Ca^2+, phospholipid and diacylglycerol. The mixture is incubated for only a brief period to insure linearity of the reaction and then spotted onto phosphocellulose filter paper. The level of radioactivity on the filter is measured, for instance by liquid scintillation spectrometry. The level of radiation is indicative of the extent to which the substrate has been phosphorylated, which in turn is indicative of the amount of protein kinase C present in the sample being assayed. As can be appreciated, by use of the peptide substrate for the present invention, the presence of protein kinase C may be conveniently and rapidly assayed.
Protein kinase C was prepared from the brains of eight rats each having a weight of from 150 to 200 grams. The rats are sacrificed by cervical dislocation. The brains of the rats are removed and placed in eight volumes of ice-cold buffer A (40 ml), composed of the following: 20 mM 4-(2-hydroxyethyl)-1-piperazineethanesulfonic acid ("HEPES"), pH 7.5; 0.3 M sucrose; 2 mM ethyl-enediaminetetracetic acid ("EDTA"); 10 mM ethylene glycol bis(B -aminoethylether)-N, N, N', N'-tetraacetic acid ("EGTA"); 2 mM dithiothreitol ("DDT"); 1 mM phenylmethylsulfonyl; 10 ug/ml pepstatin A; 10 ug/ml soybean tripsyn inhibitor; 10 ug/ml leupeptin; and 10 uM E-64 (Peninsula Labs). E 64 is an inhibitor of CA^2+ -activated proteases. The brains are homogenized with 5 strokes of teflon-glass homogenizer and centrifuged for one hour at 100,000×g in a Ti 75 rotor. The resulting supernatant is saved and adjusted to a conductivity of 0.7-0.9 mmho. […]

Substance: RRKASGPPV
- rate of reaction ([1]; peptide concentration 450 μM): 8 pmole PO4 /min
- Km ([1]; protein kinase C, O'Brian et al., read-out: Km of the reaction): 130 µM

Substance: LRRASLG [Kemptide, Leu-Arg-Arg-Ala-Ser-Leu-Gly]
- reaction rate (rate of phosphorylation) ([2]; peptide concentration 1 mM): 20 pmole PO4 /min
- Km (in words) ([2]; protein kinase C, no saturation at 3 mM): so high that it could not be determined; also recorded: too high to be determined
- saturation of protein kinase C with substrate ([2]; up to 3 mM peptide): not saturated; also recorded: will not saturate
